Source: ChEMBL document CHEMBL1201862, “PubChem BioAssay data set” (2004)
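In this assay, cells in 96-well plates receive the compound at five concentrations for 48 hours. Endpoints are linearly interpolated between the surrounding concentrations. At the GI50, growth is halved.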 Calls of active or inactive are those of the source. Rule as the data show it: active = GI50 up to about 1.1 µM and inactive = higher.

Experiments:
Assay in all cases: inhibition of tumour cell growth, NCI panel, 48 h
OVCAR-5 = tested on: OVCAR-5
NCI-H460 = tested on: NCI-H460
COLO 205 = tested on: COLO 205
CAKI-1 = tested on: CAKI-1
OVCAR-4 = tested on: OVCAR-4
LOX IMVI = tested on: LOX IMVI
SNB-19 = tested on: SNB-19
HOP-92 = tested on: HOP-92
SF-268 = tested on: SF-268
SK-MEL-2 = tested on: SK-MEL-2
T47D = tested on: T47D
MDA-MB-435 = tested on: MDA-MB-435
OVCAR-8 = tested on: OVCAR-8
UO-31 = tested on: UO-31
HT-29 = tested on: HT-29
SK-MEL-28 = tested on: SK-MEL-28
RPMI-8226 = tested on: RPMI-8226
OVCAR-3 = tested on: OVCAR-3
NCI-H23 = tested on: NCI-H23
Hs-578T = tested on: Hs-578T

SMILES	GI50 (OVCAR-5)	GI50 (NCI-H460)	GI50 (COLO 205)	GI50 (CAKI-1)	GI50 (OVCAR-4)	GI50 (LOX IMVI)	GI50 (SNB-19)	GI50 (HOP-92)	GI50 (SF-268)	GI50 (SK-MEL-2)	GI50 (T47D)	GI50 (MDA-MB-435)	GI50 (OVCAR-8)	GI50 (UO-31)	GI50 (HT-29)	GI50 (SK-MEL-28)	GI50 (RPMI-8226)	GI50 (OVCAR-3)	GI50 (NCI-H23)	GI50 (Hs-578T)
CC(C)CCCCCCCCCCCCC(=O)NCC(=O)NC1C(C)OC(Nc2[nH]cnc3ncnc2-3)C(O)C1O (centres undefined)	0.00123 µM (active)	0.000158 µM (active)	0.000622 µM (active)	< 0.01 µM (active)	0.00098 µM (active)	0.000262 µM (active)	0.0021 µM (active)	0.00028 µM (active)	0.000635 µM (active)	0.00385 µM (active)	0.00235 µM (active)	0.00571 µM (active)	0.000153 µM (active)	0.000381 µM (active)	0.00125 µM (active)	< 0.01 µM (active)	0.000568 µM (active)	0.000173 µM (active)	0.00536 µM (active)	–
COC(=O)C1=C(O)CCCC(C2CCCCC(=O)C2C(=O)OC)=C1 (centres undefined)	> 100 µM (inactive)	13.9 µM (inactive)	83.4 µM (inactive)	31.1 µM (inactive)	> 100 µM (inactive)	25.6 µM (inactive)	42.1 µM (inactive)	28.5 µM (inactive)	–	> 100 µM (inactive)	39.4 µM (inactive)	> 100 µM (inactive)	45.5 µM (inactive)	> 100 µM (inactive)	> 100 µM (inactive)	> 100 µM (inactive)	56.1 µM (inactive)	> 100 µM (inactive)	70.3 µM (inactive)	–
CC1CC(=O)C(CC(=O)O)C1C(C(=O)C(=O)Nc1c(C#N)cccc1[N+](=O)[O-])[N+](=O)[O-] (centres undefined)	> 100 µM (inactive)	> 100 µM (inactive)	> 100 µM (inactive)	> 100 µM (inactive)	> 100 µM (inactive)	> 100 µM (inactive)	> 100 µM (inactive)	82.2 µM (inactive)	> 100 µM (inactive)	> 100 µM (inactive)	–	–	> 100 µM (inactive)	57.3 µM (inactive)	> 100 µM (inactive)	> 100 µM (inactive)	> 100 µM (inactive)	> 100 µM (inactive)	> 100 µM (inactive)	–
O=C(CSSCC(=O)OCCS(=O)(=O)Nc1ccc(Br)cc1)OCCS(=O)(=O)Nc1ccc(Br)cc1	13.9 µM (inactive)	14.5 µM (inactive)	11.6 µM (inactive)	2.83 µM (inactive)	8.75 µM (inactive)	7.18 µM (inactive)	32.8 µM (inactive)	13.1 µM (inactive)	13.9 µM (inactive)	12.5 µM (inactive)	–	–	10.4 µM (inactive)	28.6 µM (inactive)	4.1 µM (inactive)	21.7 µM (inactive)	10 µM (inactive)	13.1 µM (inactive)	11.4 µM (inactive)	–
CN(C)CC[N+]1=Nc2cccc3cccc(c23)N1	> 94 µM (inactive)	16.9 µM (inactive)	31.2 µM (inactive)	31 µM (inactive)	49.5 µM (inactive)	24.1 µM (inactive)	> 49.5 µM (inactive)	34.2 µM (inactive)	> 89.9 µM (inactive)	> 100 µM (inactive)	–	–	43.6 µM (inactive)	13.9 µM (inactive)	35.3 µM (inactive)	> 100 µM (inactive)	35.1 µM (inactive)	> 100 µM (inactive)	> 77.3 µM (inactive)	–
Nc1ccc(C(=O)NN2C(=O)C(Cl)C2c2cccc(O)c2)cc1 (centres undefined)	22.2 µM (inactive)	14 µM (inactive)	17.1 µM (inactive)	20.4 µM (inactive)	16.7 µM (inactive)	3.85 µM (inactive)	16.9 µM (inactive)	17.4 µM (inactive)	3.34 µM (inactive)	15 µM (inactive)	–	–	19.9 µM (inactive)	19.7 µM (inactive)	17.4 µM (inactive)	16.9 µM (inactive)	14.7 µM (inactive)	15.8 µM (inactive)	15.5 µM (inactive)	–
NC(=O)C12C3C4C1C1C2C3C41C(N)=O (centres undefined)	> 100 µM (inactive)	> 100 µM (inactive)	> 100 µM (inactive)	> 100 µM (inactive)	> 100 µM (inactive)	> 100 µM (inactive)	> 100 µM (inactive)	> 100 µM (inactive)	> 100 µM (inactive)	> 100 µM (inactive)	–	–	> 100 µM (inactive)	> 100 µM (inactive)	> 100 µM (inactive)	> 100 µM (inactive)	> 100 µM (inactive)	> 100 µM (inactive)	> 100 µM (inactive)	–
CCOC(=O)/C(C#N)=C\Sc1ccccc1	24.7 µM (inactive)	26.4 µM (inactive)	20.1 µM (inactive)	22.3 µM (inactive)	26.7 µM (inactive)	7.46 µM (inactive)	33.5 µM (inactive)	37.2 µM (inactive)	3.73 µM (inactive)	25 µM (inactive)	–	–	13.7 µM (inactive)	9.2 µM (inactive)	26 µM (inactive)	14.7 µM (inactive)	13.7 µM (inactive)	17.4 µM (inactive)	28.3 µM (inactive)	–
COc1cc(/C=N/N=C(\N)NO)cc(Cl)c1O	35.3 µM (inactive)	41.6 µM (inactive)	> 100 µM (inactive)	26.9 µM (inactive)	76.9 µM (inactive)	31 µM (inactive)	> 100 µM (inactive)	57.8 µM (inactive)	46.7 µM (inactive)	81.1 µM (inactive)	–	–	65.6 µM (inactive)	23.9 µM (inactive)	> 100 µM (inactive)	20.7 µM (inactive)	> 100 µM (inactive)	70.3 µM (inactive)	36.9 µM (inactive)	–
CCCCN(CCCC)CC(C(=O)Nc1ccc([N+](=O)[O-])cc1[N+](=O)[O-])/C(C)=N\NC(=O)C[N+](C)(C)C (centres undefined)	> 100 µM (inactive)	55.7 µM (inactive)	35.7 µM (inactive)	42.7 µM (inactive)	> 100 µM (inactive)	33.3 µM (inactive)	> 100 µM (inactive)	33 µM (inactive)	> 100 µM (inactive)	> 100 µM (inactive)	–	–	> 100 µM (inactive)	66.5 µM (inactive)	75.9 µM (inactive)	> 100 µM (inactive)	27.7 µM (inactive)	> 100 µM (inactive)	> 100 µM (inactive)	–
CN(CCO)c1nc2c(c(=O)[nH]1)CNCC2	> 100 µM (inactive)	> 100 µM (inactive)	> 100 µM (inactive)	> 100 µM (inactive)	> 100 µM (inactive)	> 100 µM (inactive)	> 100 µM (inactive)	> 100 µM (inactive)	> 100 µM (inactive)	> 100 µM (inactive)	–	–	> 100 µM (inactive)	> 100 µM (inactive)	> 100 µM (inactive)	> 100 µM (inactive)	> 100 µM (inactive)	> 100 µM (inactive)	> 100 µM (inactive)	–
CC1(C)OC2OC(C(COS(=O)(=O)C(F)(F)F)N=[N+]=[N-])C(OC(=O)c3ccccc3)C2O1 (centres undefined)	> 100 µM (inactive)	> 100 µM (inactive)	> 100 µM (inactive)	> 100 µM (inactive)	> 100 µM (inactive)	> 100 µM (inactive)	> 100 µM (inactive)	> 100 µM (inactive)	> 100 µM (inactive)	> 100 µM (inactive)	–	> 100 µM (inactive)	> 100 µM (inactive)	> 100 µM (inactive)	> 100 µM (inactive)	> 100 µM (inactive)	–	> 100 µM (inactive)	> 100 µM (inactive)	> 100 µM (inactive)
CCCCNc1nc(C#N)c(N)s1	> 100 µM (inactive)	> 100 µM (inactive)	> 100 µM (inactive)	> 100 µM (inactive)	> 100 µM (inactive)	> 100 µM (inactive)	> 100 µM (inactive)	> 100 µM (inactive)	> 100 µM (inactive)	> 100 µM (inactive)	–	–	> 100 µM (inactive)	> 100 µM (inactive)	> 100 µM (inactive)	> 100 µM (inactive)	> 100 µM (inactive)	> 100 µM (inactive)	> 100 µM (inactive)	–
Cc1cc(-c2nc3c(F)cccc3s2)ccc1N	–	–	80.5 µM (inactive)	50.4 µM (inactive)	–	61.4 µM (inactive)	–	> 100 µM (inactive)	39.9 µM (inactive)	> 100 µM (inactive)	–	57.3 µM (inactive)	> 100 µM (inactive)	12.4 µM (inactive)	44.8 µM (inactive)	> 100 µM (inactive)	26.9 µM (inactive)	> 100 µM (inactive)	32.8 µM (inactive)	98.6 µM (inactive)
O=C1c2ccc(O)c(O)c2C(=O)c2c(O)ccc(O)c21 [QUINALIZARIN]	28.4 µM (inactive)	21.2 µM (inactive)	22.2 µM (inactive)	6.05 µM (inactive)	2.1 µM (inactive)	18.2 µM (inactive)	29 µM (inactive)	25.4 µM (inactive)	26.6 µM (inactive)	25.7 µM (inactive)	–	–	28.1 µM (inactive)	21.3 µM (inactive)	35.2 µM (inactive)	56 µM (inactive)	28.2 µM (inactive)	20.3 µM (inactive)	31.6 µM (inactive)	–
O[C@H]1[C@H]2[C@H](O)CCCN2C[C@H]1O [TRIDOLGOSIR]	> 100 µM (inactive)	> 100 µM (inactive)	> 100 µM (inactive)	> 100 µM (inactive)	> 100 µM (inactive)	> 100 µM (inactive)	> 100 µM (inactive)	> 100 µM (inactive)	> 100 µM (inactive)	> 100 µM (inactive)	–	–	> 100 µM (inactive)	> 100 µM (inactive)	> 100 µM (inactive)	> 100 µM (inactive)	> 100 µM (inactive)	> 100 µM (inactive)	> 100 µM (inactive)	–
